Three molecules from PMC2777746 (ACS chemical biology, 2009) can be followed below.

Data set [1] concerns C. albicans group I intron precursor. Description: Inhibition of C. albicans group I intron precursor self-splicing. The class given is biochemical, Candida albicans. The settings on record: read-out: IC50 for inhibition of precursor self-splicing; 2 mM Mg2+ (H2Mg buffer: 50 mM Na HEPES pH 7.5, 135 mM KCl), 1 mM nucleotide bulk yeast tRNA competitor, 100 µM GMP; four parameter logistic fit.

The next data set in a line: Solubility in water. The class given is physicochemical.

In general, IC50 refers to the concentration at which inhibition is half-maximal.

The structures appear in SMILES notation.

`c1ccc(Cn2cc(CN(Cc3cn(Cc4ccccc4)nn3)Cc3cn(Cc4ccccc4)nn3)nn2)cc1` [TBTA, tris(benzyltriazolylmethyl)amine]: the IC50 in data set [1] is > 5000 µM.
`NCCc1c[nH]c2ccccc12` [Compound 4, tryptamine]: in the data set “Solubility in water”, the solubility in water result was “not soluble in water”.
As to `N=C(N)c1ccc(OCCCCCOc2ccc(C(=N)N)cc2)cc1` [Pentamidine, pentamidine], in data set [1], the IC50 was 200 ± 35 µM.
